# Measurements from patent publication US10286000B2, “Retinoid X receptor-gamma agonists and retinoid X receptor-alpha antagonists for treatment of cancer” (St. Jude Children's Research Hospital, Inc., priority 2013, dated 2019).
# How the values were obtained:
# [1] = test system: HCT116, HT29, and CAL27 cells; experiment: in vitro cell invasion assay (ECM-coated Transwell); type: cell-based, human; conditions: HCT116, HT29, CAL27
# Experimental: The number of cells that invaded the ECM was determined after 24 h. Data are expressed as percentage change in tumor invasion relative to that of DMSO-treated cells (n=3). (D) Wound healing by DMSO- and SPIR-treated HCT116, HT29, and CAL27 cells was compared. Data are calculated as the percentage change in distance of migration relative to that of DMSO-treated cells (n=3). […] Tumor xenografts and lung metastases were detected by bioluminescence imaging on day 25. Data are shown as the average total flux (photons/second)±standard deviation (n=8). (F) The lung metastases (arrows) were confirmed by examining lung tissue sections. * P≤0.05, ** P<0.01, *** P<0.005, **** P<0.0001.
# The invasiveness of the tumor cells was determined by using the CytoSelect 96-well Cell Invasion Assay with Basement Membrane (Cell Biolabs) according to the manufacturer instructions.
# [2] = test system: ULBP2 in MR-knockdown 293T cells; experiment: ULBP2 surface expression in MR-knockdown 293T cells; type: cell-based, human
# Experimental: (A) MR mRNA expression was determined by qRT-PCR in various cell lines (n=3). (B) MR protein expression was determined by Western blot analysis. Data shown are representative of two independent experiments. (C) MR-knockdown 293T cells were generated by lentiviral transduction with an shRNA vector (pLKO.1) targeting MR. The relative mRNA expression of MR was analyzed by qRT-PCR (n=3). […] Data shown are representative of two independent experiments. * P<0.0001.
# [3] = test system: spontaneous intestinal polyps; experiment: C57BL/6J-ApcMin/J mouse model; type: in vivo, C57BL/6J-Apc^Min/J mice
# Experimental: The number of spontaneous intestinal polyps (arrows) was counted and compared between the two groups of mice at the end of the 3 month period. (B) The difference in adenoma growth (arrows) between the PBS- and SPIR-treated mouse groups was confirmed in intestine tissue sections. […] Total RNA were collected for cDNA preparation and the expressions of the mouse NKG2D ligands Raet1 family were analyzed by qRT-PCR. […] The number of spontaneous intestinal polyps (arrows) was counted and compared between the two groups of mice. * P≤0.05, ** P≤0.01, *** P<0.005.
# By examining the intestines collected from different age groups of C57BL/6J-APC^Min/J mice (n=2-3 per group), it was discovered that none of the 8-week-old mice developed intestinal polyps. The mice started to develop polyps when they were 10 to 12-week-old and there were 15-25 intestinal adenomas established in the intestinal tracts of all the 4-month-old mice. Most of the mice died at 5 to 6 months with 25-30 adenomas in their intestines. […] The number of intestinal polyps was counted, and the intestine was fixed in 10% neutral buffered formalin, paraffin embedded, sectioned, and stained with hematoxylin and eosin. Intestine sections at 100-μm intervals were collected for the observation of neoplasia without knowledge of treatment assignment.
smiles,measurement,setting,value
"CC(=O)S[C@@H]1CC2=CC(=O)CC[C@]2(C)[C@H]2CC[C@@]3(C)[C@@H](CC[C@@]34CCC(=O)O4)[C@H]12 [SPIR, spironolactone]",invasion through ECM-coated membranes,[1],significantly suppressed invasion
same,upregulation of ULBP2 upon SPIR treatment with shRNA knockdown of MR,[2],did not affect the upregulation of ULBP2
same,number of polyps (therapy),"[3]; 4-month-old mice, twice a week for 3 weeks, vs untreated",significant reduction of the number of polyps
same,number of polyps formed (prevention),"[3]; 8-week-old mice, twice a week for 3 months, vs untreated",significantly less
same,expression of Raet1 ligand in the polyps,[3]; qRT-PCR,significantly increased the expression of the Raet1 ligand
